Laboratory results taken from patent US8946226B2, “Use of CDK inhibitor for the treatment of glioma” (Nerviano Medical Sciences S.r.l., priority 2008, dated 2015).
pIC50: −log10 of the molar value.

Assays:
[1] = system: SF295; experiment: Analysis of BrdU incorporation (FACS); type: cell-based; settings: SF295, 24 hour-treatment
Description: (§1) SF-268, SF-295, SF-539 and U251 cell lines were cultured in RPMI 1640 added with 10% FCS and 2 mM glutamine and U-87MG cell line was cultured in EMEM added with 10% FCS, […] and 1% NEAA. For all the experiments cells were seeded at the density of 1×10^4/cm^2, the day after treatment with the compound for the prescribed duration and then collected at the reported times.
(§2) BrdU (5-bromo-2′ deoxyuridine) was added to the cell culture at the final concentration of 30 μM for the last hour of a 24 hour-treatment. Cells were washed with PBS, fixed in 70% ethanol and stored at −20° C. At the moment of the analysis cells were centrifuged, washed with 1% FCS in PBS and DNA denaturated with HCl 2N for 20 minutes. After a wash in Na2B4O7 0.1M pH 8.5, cells were incubated with a solution of 0.5% Tween20 in PBS+1% FCS for 15 minutes and then centrifuged. The pellets were resuspended in 150 μl of a 1:10 diluted unconjugated anti-BrdU monoclonal antibody (Becton Dickinson) and incubated for 1 hour at room temperature. After a wash in PBS, the incubation with 0.5% Tween20 was repeated; then the secondary antibody was added (1:50 diluted FITC-conjugated goat anti mouse immunoglobulin (Jackson Lab.)). After one hour at room temperature the cells were rinsed again, counterstained with propidium iodide (2 μg/ml+12.5 μg/ml DNAse-free RNAse) overnight, then analyzed by FACS.

[2] = system: U87MG; experiment: Analysis of BrdU incorporation (FACS); type: cell-based; settings: 24 hour-treatment
Description: as §1, §2

[3] = system: SF539; experiment: Analysis of BrdU incorporation (FACS); type: cell-based; settings: SF539, 24 hour-treatment
Description: as §1, §2

[4] = system: SF268; experiment: Analysis of BrdU incorporation (FACS); type: cell-based; settings: SF268, 24 hour-treatment
Description: as §1, §2

[5] = system: all the tested glioma cells; experiment: Inhibition of cell proliferation, summary over cell lines; type: cell-based; settings: 72 hours, read-out: IC50 (inhibit proliferation), range over cell lines
Description: as §1
(§3) Cells were washed and counted 72 hours after the treatment. Cell proliferation was determined by a cellular adenosine triphosphate monitoring system. Cell proliferation was compared to control cells. The concentration inhibiting cell proliferation by 50% (IC50) was calculated.

[6] = system: U251; experiment: Acridine orange staining to evaluate autophagy (FACS); type: cell-based, human; settings: U251, 3 μM
Description: as §1
(§4) During the last 15 minutes of incubation, acridine orange (1 μg/ml) was added to the cells that were then collected, washed with PBS and analyzed by FACS for their fluorescence emission. Acridine orange moves freely to cross biological membranes but, when in the cytoplasm and nucleolus, fluoresces bright green and dim red; in the acidic vacuoles generated by autophagy appears bright red.

[7] = system: SF295; experiment: Inhibition of cell proliferation (cellular ATP monitoring); type: cell-based; settings: Homo sapiens, SF-295; SF295, 72 hours
Description: as §1, §3

[8] = system: U251; experiment: as above; type: cell-based; settings: Homo sapiens, U-251; U251, 72 hours
Description: as §1, §3

[9] = system: U87MG; experiment: as above; type: cell-based; settings: Homo sapiens, U-87 MG, 72 hours
Description: as §1, §3

[10] = system: SF539; experiment: as above; type: cell-based; settings: Homo sapiens, SF-539; SF539, 72 hours
Description: as §1, §3

[11] = system: SF268; experiment: as above; type: cell-based; settings: Homo sapiens, SF-268; SF268, 72 hours
Description: as §1, §3

[12] = system: U251 cells; experiment: Efficacy on intracranially implanted glioma tumor model; type: in vivo, Athymic male nude mice; settings: 40 mg/kg bid OS, FIG. 3
Description: Animals that underwent surgical procedures were anesthetized following one of the above mentioned protocols, i.e. Ketamin, 80-100 mg/kg i.p.+Xilazin: 10 mg/kg i.p.; Isofluorane: 1.5-2%. Athymic male nude mice, aged 6-8 weeks were anesthetized, placed under the stereotaxic apparatus and gently fixed with ear bars and into the head holder. Skin of the head was cut longitudinally (parallel to ears) and skull of the mouse discovered. With the X and Y axis controller of the apparatus, bregma (interception between median sagittal and anterior coronal sutures to perform injection into the cerebral nuclei) and lambda (interception between median sagittal suture and posterior coronal suture to perform injection into the cerebellum) were identified as point 0. The following coordinates were set in the apparatus and the point of injection identified. With a microdrill a small hole was done in the desired point. Cells were aspirated with the Hamilton syringe (usually […]) just prior injection (a short mix of cells before aspiration was performed to avoid precipitation of cells). By pointing to the hole, Z axis was fixed to 0 and syringe gently inserted into the brain until reaching the right coordinate (−3.0 mm depth). U251 cells were injected at the speed of 1 μl per minute. […] After the end of the surgery mice were monitored for recovery until complete wakening.

[13] = system: SF295; experiment: Acridine orange staining to evaluate autophagy (FACS); type: cell-based; settings: SF295, 3 μM
Description: as §1, §4

[14] = system: U87MG; experiment: as above; type: cell-based; settings: 3 μM
Description: as §1, §4

[15] = system: SF539; experiment: as above; type: cell-based; settings: SF539, 6 μM
Description: as §1, §4

[16] = system: SF268; experiment: as above; type: cell-based; settings: SF268, 3 μM
Description: as §1, §4

[17] = system: U251; experiment: Analysis of BrdU incorporation (FACS); type: cell-based, human; settings: U251, 24 hour-treatment
Description: as §1, §2

[18] = system: SF-539 cells; experiment: Mode of action by Western blot analysis; type: cell-based; settings: SF-539 cells treated for 6 hours, 3 μM, FIG. 2
Description: (§5) Treated cells were lysed by adding SDS sample buffer (0.125M Tris-HCl pH6.8, 5% SDS). Samples were heated to 95° C. for 5 minutes and then sonicated using an Ultrasonic 2000 ARTEK. Lysed cells were centrifuged at 13,000 RPM for 10 minutes. Protein quantification was determined using BCA buffer (Pierce) and a BSA standard curve. 20 μg protein extract per well were loaded and separated by SDS-PAGE gel 7.5-10% (PAGE-PLUS 40% concentrate AMRESCO). The gel was blotted onto nitrocellulose filters (Hybond Amersham) in a buffer containing 25 mM Tris HCl pH 8.3, 192 mM Glycine and 20% methanol. The filters were saturated in 5% low-fat milk in TBS containing 0.1% Tween 20 (TBS-T) for 2 hours at room temperature and than incubated overnight at 4° C. with the primary monoclonal followed by washes in TBS-T and incubation using a secondary anti mouse antibody. The bands were visualized using the “Super Signal West Pico” Pierce.

[19] = system: all glioma cell lines; experiment: Mode of action by Western blot analysis; type: cell-based; settings: independently from the status of Rb pathway
Description: as §5

[20] = system: U251 human glioma cells; type: in vivo
Description: Balb, Nu/Nu male mice, from Harlan (Italy), were maintained in cages with paper filter cover, food and bedding sterilized and water acidified. 2.5×10^6 U251 human glioma cells (from the American Type Culture Collection) were injected subcutaneously in athymic mice. […] Tumor growth and body weight were measured every 3 days. Tumor growth was assessed by caliper. The two diameters were recorded and the tumor weight was calculated according the following formula: length (mm)×width^2/2. Toxicity was evaluated on the basis of body weight reduction.

[21] = system: all the tested glioma cells; experiment: Acridine orange staining to evaluate autophagy, summary over cell lines; type: cell-based
Description: as §1, §4

[22] = system: U251 cells; experiment: Mode of action by Western blot analysis; type: cell-based, human; settings: U251 cells treated for 24 hours, 1 and 3 μM, FIG. 1
Description: as §5

[23] = Radioactivity distribution in brain by autoradioluminography, plasma by LSC; type: in vivo, Sprague Dawley rats; settings: 14C-labelled, single oral 20 mg/kg as maleate salt, rat
Description: Animals were sacrificed 2, 6 and 24 hours after administration (2 animals at each selected time) and the radioactivity distribution of compound-related material was evaluated in intact brain, after excision. The autoradioluminography method was used to evaluate the quantitative radioactivity distribution in the brain.
The radioactivity distribution was also evaluated in blood and plasma collected from the animals after sacrifice. The radioactivity levels in blood and plasma were determined by Liquid Scintillation Counting (LSC).

[24] = Levels of compound in brain and plasma by LC/MS/MS; type: in vivo, Han Wistar rats; settings: rat; for Brain levels: average
Description: The animals were sacrificed on day 6 at 2 and 6 hours after dosing. Brain and plasma were taken at the sacrifice time. Blood was put in heparinised plastic tubes, kept in ice-water bath, and then centrifuged (10 minutes, 1200 g at 4° C.). Brain and plasma samples were stored in a freezer at −80° C. until analysis. The levels of compound of formula (I) were analysed by LC/MS/MS.

## CNC(=O)c1nn(C)c2c1C(C)(C)Cc1cnc(Nc3ccc(N4CCN(C)CC4)cc3)nc1-2 [compound of formula (I), 8-[4-(4-methyl-piperazin-1-yl)-phenylamino]-1,4,4-trimethyl-4,5-dihydro-1H-pyrazolo[4,3-h]quinazoline-3-carboxylic acid methylamide]
[1]
  % BrdU inhib: 74%
[2]
  % BrdU inhib: 92%
[3]
  % BrdU inhib: 39%
[4]
  % BrdU inhib: 78%
[5]
  pIC50: 5.27 to 5.85
[6]
  Autophagy %: 58 (3 μM) %
[7]
  pIC50: 5.27
[8]
  pIC50: 5.55
[9]
  pIC50: 5.80
[10]
  pIC50: 5.85
[11]
  pIC50: 5.60
[12]
  increase in the survival time in comparison to vehicle-treated control mice: 30%
[13]
  Autophagy %: 68 (3 μM) %
[14]
  Autophagy %: 50 (3 μM) %
[15]
  Autophagy %: 35 (6 μM) %
[16]
  Autophagy %: 70 (3 μM) %
[17]
  % BrdU inhib: 74%
[18]
  phosphorylation of TRKA receptor: Inhibition
  phosphorylation of downstream proteins, both in the MAPK and in AKT pathway: Inhibition
[19]
  cell cycle related markers: decrease
[20]; U251 subcutaneous xenograft, oral 40 mg/kg BID for 10 consecutive days
  Max tumor growth inhibition (%): 80%
[20]; male, Balb Nu/Nu, mouse, in vivo, po, 40 mg/kg, 10 days
  Toxicity: 0/8
[21]
  induce autophagy, % of the cells, range over cell lines: 36-70%
[22]
  Rb phosphorylation: strong inhibition
  cdc6 expression: strong inhibition
  cyclin A expression: strong inhibition
  cyclin B1 expression: strong inhibition
[23]; 2 h
  Brain (total radioactivity): 4.6 μg eq/g
  Cerebellum (total radioactivity): 4.4 μg eq/g
  Plasma (total radioactivity): 1.43 μg eq/g
[23]; 6 h
  Brain (total radioactivity): 1.4 μg eq/g
  Cerebellum (total radioactivity): 1.5 μg eq/g
  Plasma (total radioactivity): 0.89 μg eq/g
[23]; 24 h
  Brain (total radioactivity): 0.4 μg eq/g
  Cerebellum (total radioactivity): 0.4 μg eq/g
  Plasma (total radioactivity): 0.14 μg eq/g
[24]; Han Wistar, brain/plasma, oral 60 mg/kg for 6 days, assuming a density equal to 1, read-out: brain levels times higher than plasma levels
  Kp: 6.1 to 9.6
[24]; Han Wistar, plasma, oral 60 mg/kg for 6 consecutive days, day 6, 2 hours post-dosing
  concentration at 2 h: 9.8 µM
[24]; Han Wistar, plasma, oral 60 mg/kg for 6 consecutive days, day 6, 6 hours post-dosing
  concentration at 6 h: 8.4 µM
[24]; oral 60 mg/kg for 6 consecutive days, day 6, 2 hours post-dosing
  Brain levels: 88.9 nmoles/gr of tissue
[24]; oral 60 mg/kg for 6 consecutive days, day 6, 6 hours post-dosing
  Brain levels: 69.4 nmoles/gr of tissue
